Data reported in patent US20230416329A1, “A PEPTIDE WITH DISULFIDE BONDS AND INHIBITORY ACTIVITY AGAINST SERINE PROTEASES, DERIVED HYBRID PEPTIDES THEREOF, AND USES THEREOF” (INSTITUTE OF MATERIA MEDICA , CHINESE ACADEMY OF MEDICAL …, priority 2020, published 2023).
Bridge positions count the residues as written; N and C are the ends. Peptide text beside a SMILES is read from it.

Experiments:
[1] = biological target: porcine pancreatic elastase (Sus scrofa, UniProt P00772); assay: Elastase inhibitory activity of peptides (AAApNA hydrolysis; IC50, Ki, residual activity); format: biochemical; details: elastase 0.5 μM, AAApNA 1 mM
Procedure: The inhibition constants of various synthetic active peptide inhibitors (molecular scaffolds) against seine proteases were measured. The substrates N-succinyl-Ala-Ala-Pro-Phe-p-nitroaniline (AAPFpNA), Nα—Benzoyl-L-arginine-4-nitroaniline hydrochloride (BApNA) and N-succinyl-[…] (AAApNA) are used in competitive binding reaction to determine the inhibitory activities against α-chymotrypsin, bovine trypsin, and porcine pancreatic elastase, respectively. Experiments for α-chymotrypsin and bovine trypsin inhibition were measured in 20 mM CaCl2, 50 mM Tris-HCl buffer (pH 7.8), and that for porcine elastase inhibition was measured in 50 mM Tris-HCl buffer (pH 8.0). The concentration of the peptide was measured using optical density (OD) at 280 nm. The Michaelis constant (Km) of the enzyme hydrolysis substrate is calculated from the initial rate of substrate hydrolysis at 405 nm. The absorbance value of the substrate was measured at 405 nm after complete hydrolysis. All data were processed using nonlinear regression.
• (1) Added a total 198 μL of reaction buffer (20 mM CaCl2, 50 mM Tris-HCl (pH 8.0)) into the 96 well plate, followed by preheating at 37° C. for 15 min. Then added 2 μL of different concentrations of substrates (pNA, dissolved in DMSO), and mixed by centrifugation at 500 rpm for 1 min. Finally, the plate was incubated at 37° C. for 30 min, and the absorbance value at 405 nm was measured. In the 200 μL of reaction system, the final concentrations of pNA were 0, 0.025, 0.05, 0.075, 0.1, 0.125, 0.15, 0.175, and 0.2 mM, respectively. Make three repetitions for each concentration and plot the OD405 m value with pNA concentration to obtain the standard curve. • (2) Added a total 190 μL of reaction buffer (20 mM CaCl2, 50 mM Tris-HCl (pH 8.0)) and 8 μL of 4.375 μM elastase into the 96 well plate, followed by preheating at 37° C. for 5 min. Then added 2 μL of different concentrations of substrates (AAApNA, dissolved in DMSO), and mixed by centrifugation at 500 rpm for 1 min. Finally, the plate was incubated at 37° C. for 30 min, and the absorbance value at 405 nm was measured. In the 200 μL of reaction system, the final concentrations of AAApNA were 0, 0.125, 0.166, 0.2, 0.25, 0.33, 0.6, 0.75, and 1.25 mM, respectively. Make three repetitions for each concentration and plot the OD405 nm value with time to obtain the corresponding curve. Divide the slope of the curve by the slope of the standard curve and the enzyme concentration to obtain the initial velocity V0 (mM/(min*mM protein). Plot the initial velocity V0 with the concentration of substrate AAApNA using Prism software, and the Michaelis constant Km value of elastase hydrolyzing AAApNA was obtained.
• (1) Added a total 190 μL of different concentrations of peptides (ECs) against elastase and reaction buffer (20 mM CaCl2, 50 mM Tris-HCl buffer (pH 8.0)) into the pre-cold 96 well plate, followed by preheating at 37° C. for 5 min and centrifugated at 500 rpm for 1 min and allowed to stand for 4 minutes. Then added 8 μL of 12.5 μM elastase and incubated at 37° C. for 10 min and centrifugated at 500 rpm for 1 min and allowed to stand for 9 minutes. Finally, added 2 μL of 100 mM AAApNA, and mixed by centrifugation at 500 rpm for 1 min. The plate was incubated at 37° C. for 60 min, and the absorbance value at 405 nm was measured. Three repetitions were made, and only reaction buffer and substrate were added in the blank control as the minimum absorption value (Min OD405 nm); Only reaction buffer, enzyme and substrate were added in the negative control as the maximum absorption value (Max OD405 nm). • (2) In the 200 μL of reaction system, the final concentrations of elastase and AAApNA were 0.5 μM and 1 mM, respectively. • (3) Data statistics
Residual activity of enzyme (%)=(1−(Max OD405 nm−Sample OD405 nm)/(Max OD405 nm−Min OD405 nm))*100 […]

trypsin = biological target: T1, trypsin (Bos taurus, UniProt P00760); assay: in vitro
T1 sequence (P00760 24-246): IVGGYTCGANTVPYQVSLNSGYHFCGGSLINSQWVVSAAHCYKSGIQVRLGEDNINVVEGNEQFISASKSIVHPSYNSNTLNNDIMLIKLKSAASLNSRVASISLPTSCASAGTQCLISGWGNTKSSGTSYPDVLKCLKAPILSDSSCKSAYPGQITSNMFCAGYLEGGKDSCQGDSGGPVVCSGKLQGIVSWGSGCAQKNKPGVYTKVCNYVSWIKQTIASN
Procedure: FIG. 17. […] At different time point, 25 μL aliquots was taken out, and 10% (v/v) TFA was added to terminate the reaction.
(§1) Mix by centrifugation at 8000 rpm for 30 seconds.
Arrange a certain volume of 0.05 μg/μL trypsin solution in another sterile EP. Incubate the EP tubes containing peptides and enzymes at 37° C. for 5 min, and separately add 6 μL of trypsin solution to each EP tube containing peptides and mix well. Start timing and extract 25 μL of reaction solution at 1.5, 3.0, 4.5, 6.0 and 9.0 min later, respectively. Add 3.75 μL of 10% TFA to terminate the reaction and mix well by centrifugation at 8000 rpm for 30 seconds.
Arrange a certain volume of 0.05 μg/μL trypsin solution in another sterile EP. Incubate the EP tubes containing peptides and enzymes at 37° C. for 5 min, and add 9 μL of trypsin solution to each EP tube containing peptides and mix well. Start timing and extract 25 μL of reaction solution at 1.5, 3.0, 4.5, 6.0, 9.0, 15.0, 30.0, and 60.0 min later, respectively. Add 3.75 μL of 10% TFA to terminate the reaction and mix well by centrifugation at 8000 rpm for 30 seconds.
(§2) Referring to the experimental method in Example 5, in vitro stability of salmon Calcitonin analogs with oral administration activity to the enzymatic hydrolysis by trypsin, chymotrypsin and elastase were performed.
(§3) Referring to the experimental method in Example 5, in vitro stability of IL-17A inhibitory peptides towards the enzymatic hydrolysis by trypsin, chymotrypsin and elastase were performed.

chymotrypsin = chymotrypsin (Bos taurus, UniProt P00766); assay: in vitro; details: for Remaining peak area (%)/chymotrypsin: 0 h; for remaining at 0.025 h, 60 μM / remaining at 0.05 h, 60 μM / remaining at 0.075 h, 60 μM / remaining at 0.1 h, 60 μM / remaining at 0.15 h, 60 μM / remaining at 0.25 h, 60 μM / remaining at 0.5 h, 60 μM / remaining at 1 h, 60 μM: isolated enzyme chymotrypsin, pH 7.8, Remaining peak area (%)/chymotrypsin
Procedure: FIG. 18. […] At different time point, 25 μL aliquots was taken out, and 10% (v/v) TFA was added to terminate the reaction.
as §1
Arrange a certain volume of 0.05 μg/μL chymotrypsin solution in another sterile EP. Incubate the EP tubes containing peptides and enzymes at 37° C. for 5 min, and add 3 μL of […] solution to each EP tube containing peptides and mix well. Start timing and extract 25 μL of reaction solution at 1.5, 3.0, 4.5, 6.0 and 9.0 min later, respectively. Add 3.75 μL of 10% TFA to terminate the reaction and mix well by centrifugation at 8000 rpm for 30 seconds.
Arrange a certain volume of 0.05 μg/μL chymotrypsin solution in another sterile EP. Incubate the EP tubes containing peptides and enzymes at 37° C. for 5 min, and then add 4.5 μL of chymotrypsin solution to each EP tube containing peptides and mix well. Start timing and extract 25 μL of reaction solution at 1.5, 3.0, 4.5, 6.0, 9.0, 15.0, 30.0, and 60.0 min later, respectively. Add 3.75 μL of 10% TFA to terminate the reaction and mix well by centrifugation at 8000 rpm for 30 seconds.
as §2, §3

[2] = isolated enzyme trypsin, pH 7.8

Sequence of porcine pancreatic elastase (P00772 27-266): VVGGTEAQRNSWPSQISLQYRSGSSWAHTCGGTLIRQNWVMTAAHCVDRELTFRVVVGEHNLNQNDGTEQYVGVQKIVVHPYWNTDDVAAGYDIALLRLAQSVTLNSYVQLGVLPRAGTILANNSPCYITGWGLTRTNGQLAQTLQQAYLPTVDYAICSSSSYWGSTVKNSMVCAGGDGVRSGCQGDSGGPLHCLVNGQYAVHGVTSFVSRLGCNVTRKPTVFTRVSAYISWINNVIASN

SMILES | IC50 [1] [µM] | Remaining peak area (%)/chymotrypsin (chymotrypsin) [%] | remaining at 0.025 h, 60 μM (chymotrypsin) [%] | remaining at 0.05 h, 60 μM (chymotrypsin) [%] | remaining at 0.075 h, 60 μM (chymotrypsin) [%] | remaining at 0.1 h, 60 μM (chymotrypsin) [%] | remaining at 0.15 h, 60 μM (chymotrypsin) [%] | remaining at 0.25 h, 60 μM (chymotrypsin) [%] | remaining at 0.5 h, 60 μM (chymotrypsin) [%] | remaining at 1 h, 60 μM (chymotrypsin) [%] | also measured
CC[C@H](C)[C@@H]1NC(=O)[C@H](CO)NC(=O)[C@H](C)NC(=O)[C@H]([C@@H](C)O)NC(=O)[C@H](C)NC(=O)[C@H](CC(C)C)NC(=O)[C@@H](N)CSSC[C@@H](C(=O)N[C@@H](Cc2ccc(O)cc2)C(=O)O)NC(=O)[C@H](CCC(N)=O)NC(=O)[C@@H]2CCCN2C(=O)[C@@H]2CCCN2C1=O [EC5] (H-CLATASIPPQCY-OH; disulfide 1-11; N-terminus and C-terminus assumed) | > 50 |  |  |  |  |  |  |  |  |  | 
CC[C@H](C)[C@@H]1NC(=O)[C@H](CO)NC(=O)[C@H](Cc2ccc(O)cc2)NC(=O)[C@H]([C@@H](C)O)NC(=O)[C@@H](NC(=O)[C@H](Cc2ccccc2)NC(=O)CNC(=O)[C@@H]2CCCN2C(=O)[C@@H](NC(=O)CNC(=O)[C@H](CO)NC(=O)CNC(=O)[C@@H](NC(=O)[C@H](CC(N)=O)NC(=O)[C@@H](NC(=O)[C@H](CCCNC(=N)N)NC(=O)[C@@H]2CCCN2C(=O)[C@H](Cc2ccc(O)cc2)NC(=O)[C@@H](NC(=O)[C@H](CCC(N)=O)NC(=O)[C@H](CC(C)C)NC(=O)[C@H](CCCCN)NC(=O)[C@H](Cc2c[nH]cn2)NC(=O)[C@H](C)NC(=O)[C@H](CCC(=O)O)NC(=O)[C@H](CCC(N)=O)NC(=O)[C@H](CO)NC(=O)[C@H](CC(C)C)NC(=O)[C@H](CCCCN)NC(=O)CNC(=O)[C@H](CC(C)C)NC(=O)CNC(=O)[C@@H]2CSSC[C@H](N)C(=O)N[C@@H](CO)C(=O)N[C@@H](CC(N)=O)C(=O)N[C@@H](CC(C)C)C(=O)N[C@@H](CO)C(=O)N[C@@H]([C@@H](C)O)C(=O)N2)[C@@H](C)O)[C@@H](C)O)[C@@H](C)O)[C@@H](C)O)CSSC[C@@H](C(=O)N[C@@H](Cc2ccc(O)cc2)C(=O)NCC(=O)O)NC(=O)[C@H](CCC(N)=O)NC(=O)[C@@H]2CCCN2C(=O)[C@@H]2CCCN2C1=O [Cal-CH] |  | 100.0 ± 0.0 | 89.3 ± 2.9 | 90.9 ± 4.7 | 83.8 ± 0.4 | 82.2 ± 4.1 | 52.4 | 51.8 ± 0.4 | 51.2 ± 1.8 | 24.6 ± 0.5 | Remaining peak area (%)/Trypsin (trypsin; 0 h): 100.0 ± 0.0%; remaining at 0.025 h, 60 μM (trypsin; [2]): 13.4 ± 2.3%; remaining at 0.05 h, 60 μM (trypsin; [2]): 0%; remaining at 0.075 h, 60 μM (trypsin; [2]): 0%; remaining at 0.1 h, 60 μM (trypsin; [2]): 0%; remaining at 0.15 h, 60 μM (trypsin; [2]): 0%; stability towards chymotrypsin hydrolysis (in words) (chymotrypsin): resistant to the corresponding protease degradation
CC[C@H](C)[C@@H]1NC(=O)[C@H](CO)NC(=O)[C@H](C)NC(=O)[C@H]([C@@H](C)O)NC(=O)[C@H](CCC(=O)O)NC(=O)[C@H](CCCNC(=N)N)NC(=O)CNC(=O)[C@@H](N)CSSC[C@@H](C(=O)N[C@@H](CCCCN)C(=O)O)NC(=O)[C@H](CCC(N)=O)NC(=O)[C@@H]2CCCN2C(=O)[C@@H]2CCCN2C1=O [EC9] (H-CGRETASIPPQCK-OH; disulfide 1-12; N-terminus and C-terminus assumed) | > 50 |  |  |  |  |  |  |  |  |  | 
CC[C@H](C)[C@@H]1NC(=O)CNC(=O)[C@@H](N)CSSC[C@@H](C(=O)N[C@@H](CCC(N)=O)C(=O)O)NC(=O)[C@H]([C@@H](C)CC)NC(=O)[C@@H]2CCCN2C(=O)[C@@H]2CCCN2C(=O)[C@H]([C@@H](C)CC)NC(=O)[C@H](CO)NC(=O)[C@H](C)NC(=O)[C@H]([C@@H](C)O)NC(=O)[C@H](Cc2ccccc2)NC1=O [EC36] (H-CGIFTASIPPICQ-OH; disulfide 1-12) | > 50 |  |  |  |  |  |  |  |  |  | 
CC[C@H](C)[C@H](N)C(=O)N[C@@H](Cc1c[nH]cn1)C(=O)N[C@H](C(=O)N[C@H](C(=O)N[C@H](C(=O)N1CCC[C@H]1C(=O)N[C@@H](C)C(=O)N[C@@H](CC(=O)O)C(=O)N[C@@H](CC(C)C)C(=O)N[C@@H](Cc1c[nH]c2ccccc12)C(=O)N[C@@H](CC(=O)O)C(=O)N[C@@H](Cc1c[nH]c2ccccc12)C(=O)N[C@H](C(=O)N[C@@H](CC(N)=O)C(=O)NCC(=O)N[C@H]1CSSC[C@@H](C(=O)N[C@@H](Cc2ccccc2)C(=O)O)NC(=O)[C@H]([C@@H](C)CC)NC(=O)[C@@H]2CCCN2C(=O)[C@@H]2CCCN2C(=O)[C@H]([C@@H](C)CC)NC(=O)[C@H](CO)NC(=O)[C@H](CCCCN)NC(=O)[C@H]([C@@H](C)O)NC(=O)[C@H](C)NC(=O)[C@H](CCCNC(=N)N)NC(=O)CNC1=O)[C@@H](C)CC)[C@@H](C)CC)[C@@H](C)O)C(C)C [17A-BT] (H-IHVTIPADLWDWINGCGRATKSIPPICF-OH; disulfide 16-27) |  | 100.0 ± 0.0 | 69.6 ± 3 | 68.9 ± 4.8 | 48.1 ± 4.3 | 45.2 ± 1.3 | 42.9 ± 3 | 37 ± 1.7 | 26.4 ± 0.4 | 9.6 ± 0.8 | stability towards trypsin hydrolysis (in words) (trypsin): tolerated to the degradation of corresponding serine proteases
